{"source": "patent US11291674B2", "about": "(CALITHERA BIOSCIENCES, INC., priority 2016, dated 2022)", "key": {"4T1 cell line": {"system": "4T1 cell line", "experiment": "Cytotoxicity assay (CellTiterGlo), 4T1", "assay_type": "cell-based, murine", "details": "1 mM arginase inhibitor, 72 h", "experimental": "(§1) Cytotoxicity assays. […] Cytotoxicity was assayed by the addition of CellTiterGlo reagent according to the manufacturer's instructions (Promega, Madison, Wis.) followed by […] quantification on a Molecular Devices plate reader (Sunnyvale, Calif.)."}, "LLC tumors": {"system": "LLC tumors", "experiment": "LLC syngeneic tumor model", "assay_type": "in vivo, mouse", "text": "(§2) Murine tumor studies. Female wild-type C57BL/6 and Balb/c mice (5-6 weeks old) were purchased from Charles River Laboratories (Hollister, Calif.). Severe combined immune deficient (SCID, B6.CB17-PrkdcSCID/SzJ) and Pmel-1 TCR transgenic (B6.Cg-Thyla/Cy Tg(TcraTcrb)8Rest/J) mice (5-6 weeks old) were purchased from The Jackson Laboratory (Bar Harbor, Me.). All mice were housed and treated in accordance with Institutional Animal Care and Use Committee guidelines. For the 4T1 tumor model, 1×10^5 cells were injected orthotopically into the mammary fat pad; for all other tumor models, 1×10^6 cells were injected subcutaneously (s.c.) in the right flank. […] Control groups received vehicle (water) twice daily by gavage. Tumor volume measured by digital caliper (length×width×width/2) and body weight were recorded three times weekly. Animals were euthanized when tumors necrotized or volumes reached 2000 mm^3. Anti-PD-L1 antibody (5 mg/kg, clone 10F.9G2, BioXCell, West Lebanon, N.H.) was injected intraperitoneally (i.p.) on days 5, 7, 9, 11, 13, and 15 for the CT26 model. Gemcitabine (Selleckchem, Houston, Tex.) was dosed 50 mg/kg i.p. on days 10 and 16 for the CT26 model or 60 mg/kg i.p. on days 6 and 10 for the LLC model. For CD8^+ cell depletion, mice were injected i.p. with anti-CD8 antibody (25 mg/kg, clone 2.43, BioXCell) on days −1, 0, +5, and +10. For NK cell depletion, mice were injected i.p. with anti-NK1.1 antibody (25 mg/kg, clone PK136, BioXCell) in the LLC and B16 models or with anti-Asialo GM1 sera (20 μL, Wako Chemicals, Richmond, Va.) in the CT26 model, per the same schedule as anti-CD8.\nTumor dissociation and flow cytometry. […] Excised tumors were placed in RPMI-1640 containing 5% FBS on ice, minced with a razor blade, and dissociated in RPMI-1640 supplemented with mouse tumor dissociation enzymes (Miltenyi Biotec, Bergisch Gladbach, Germany) on a GentleMACS Octo Dissociator With Heat (Miltenyi Biotec) according to the manufacturer's instructions. Dissociated tumors were strained through 70 μm nylon mesh, washed with cold PBS containing 2% FBS, blocked with anti-CD16/CD32 (Fc block antibody, eBioscience), and stained for cell surface antigens. For B16 and 4T1 tumors, washed dissociated tumor cells were incubated with Dead Cell Removal MicroBeads (Miltenyi Biotec) and applied to a magnetic column prior to staining. For intracellular staining, cells were fixed and permeabilized using buffers purchased from R&D Systems or eBioscience for cytoplasmic or nuclear antigens, respectively. All tumor flow experiments were acquired on an Attune N×T flow cytometer and analyzed with FlowJo software version 10 (Ashland, Oreg.), using fluorescence-minus-one controls for gating and single-stained OneComp eBeads (eBioscience) to set compensation matrices.\nGene expression analysis. […] RNA was extracted for gene expression analysis and transcripts were quantified by NanoString Technologies (Seattle, Wash.).\nCytokine analysis. […] Tumors were homogenized in 50 mM Tris-HCl buffer containing 2 mM EDTA, pH 7.4 and protease inhibitors. The homogenate was centrifuged and the supernatant was collected and re-frozen. Cytokines in the supernatant were quantified by Myriad Rules Based Medicine (Austin, Tex.)."}, "[1]": {"experiment": "Tolerability and body weight in mice", "assay_type": "in vivo", "text": "as §2, with “For NK cell depletion, mice were injected i.p. with anti-NK1.1 antibody (25 mg/kg, clone PK136, BioXCell) in the LLC and B16 models or with anti-Asialo GM1 sera (20 μL, Wako Chemicals, Richmond, Va.) in the CT26 model, per the same schedule as anti-CD8.” left out"}, "B16 tumors [2]": {"system": "B16 tumors", "experiment": "B16 syngeneic tumor model", "assay_type": "in vivo", "text": "as §2\nTumor dissociation and flow cytometry. […] All tumor flow experiments were acquired on an Attune N×T flow cytometer and analyzed with FlowJo software version 10 (Ashland, Oreg.), using fluorescence-minus-one controls for gating and single-stained OneComp eBeads (eBioscience) to set compensation matrices."}, "[3]": {"target": "T1, Rat cerebellar neuronal NOS (Rattus norvegicus, UniProt P29476)", "T1 construct": "native rat cerebellar neuronal NOS; tissue Eurofins/Cerep Panlabs (contract laboratory that ran the assay); host or cells: rat cerebellum", "experiment": "NOS activity assay, neuronal NOS", "assay_type": "biochemical", "details": "50 μM arginase inhibitor", "text": "Nitric oxide (NO) synthase (NOS) activity assays.\nStandard deviations are indicated in parentheses. […] N/A=not applicable."}, "B16 tumors [4]": {"system": "B16 tumors", "experiment": "Adoptive T cell transfer study, B16 model", "assay_type": "in vivo, mouse", "details": "compared to either single agent; all groups cyclophosphamide plus fludarabine", "experimental": "Adoptive T cell transfer studies. Activated gp100-specific CD8^+ (Pmel-1) T cells were generated as described in Ya et al. Briefly, splenocytes from Pmel-1 TCR transgenic mice were isolated, pulsed with 1 μM of murine gp10025-33 (Anaspec, Fremont, Calif.) and expanded for 1 week in the presence of 60 IU/mL recombinant human IL-2 (Peprotech, Rocky Hill, N.J.). Cells were >90% CD8^+Vβ13^+ T cells as determined by flow cytometry. C57BL/6 mice were inoculated s.c. with B16 tumor cells. […] On day 7, lymphopenia was induced by a non-myeloablative chemotherapy regimen of 250 mg/kg cyclophosphamide and 50 mg/kg fludarabine administered i.p. The chemotherapy regimen was administered to all groups. On day 9, mice were administered 1×10^6 Pmel-1 T cells intravenously (i.v.). Mice receiving Pmel-1 T cells also received recombinant human IL-2 (200,000 IU/dose) administered i.p. twice daily for 3 days starting the day of T cell transfer."}, "[5]": {"system": "intracellular arginase in Human HepG2 cell line", "experiment": "Native arginase activity in intact cells, HepG2", "assay_type": "cell-based", "details": "mean (SD), N=3, 10 mM L-arginine, urea in media after 24 h", "text": "Native arginase activity in intact cells.\nStandard deviations are indicated in parentheses."}, "CT26 cell line": {"system": "CT26 cell line", "experiment": "Cytotoxicity assay (CellTiterGlo), CT26", "assay_type": "cell-based, murine", "details": "1 mM arginase inhibitor, 72 h", "experimental": "as §1"}, "[6]": {"details": "100 mg/kg BID, study day 14, flow cytometry"}}}
{"smiles": "C[C@H](N)C(=O)N1C[C@H](CCCB(O)O)[C@](N)(C(=O)O)C1", "note": "[arginase inhibitor]", "values": [{"measurement": "Growth inhibition of 4T1 cell line", "setting": "4T1 cell line", "result": "No growth inhibition"}, {"measurement": "Tumor growth, single agent", "setting": "LLC tumors; 100 mg/kg BID PO", "result": "significantly inhibited the growth"}, {"measurement": "Transcripts of interferon-responsive genes in tumors vs vehicle", "setting": "LLC tumors; 100 mg/kg BID, Nanostring", "result": "increases"}, {"measurement": "CD8+ T cells in the tumor vs vehicle", "setting": "LLC tumors; [6]", "result": "increase"}, {"measurement": "CD68+ macrophages in the tumor vs vehicle", "setting": "LLC tumors; [6]", "result": "decrease"}, {"measurement": "Effect of depletion of CD8+ cells on efficacy", "setting": "LLC tumors; 100 mg/kg twice daily, anti-CD8", "result": "smaller effect"}, {"measurement": "Efficacy after depletion of NK cells", "setting": "LLC tumors; 100 mg/kg twice daily, anti-NK1.1", "result": "loss of efficacy"}, {"measurement": "Inflammatory cytokines in tumors vs vehicle", "setting": "LLC tumors; 200 mg/kg BID, Luminex", "result": "increases"}, {"measurement": "Tumor growth inhibition, combination with gemcitabine", "setting": "LLC tumors; gemcitabine 60 mg/kg i.p. days 6 and 10", "result": "significant increase in tumor growth inhibition"}, {"measurement": "Tolerability", "setting": "[1]; 100 mg/kg twice daily for 23 days, no significant clinical observations or impact on body weight", "result": "well-tolerated"}, {"measurement": "Duration for which twice-daily oral dosing was well-tolerated", "setting": "[1]; mice", "result": "at least 40 days"}, {"measurement": "Tumor growth, single agent", "setting": "B16 tumors [2]; 100 mg/kg BID PO", "result": "significantly inhibited the growth"}, {"measurement": "Tumor-infiltrating activated CD25+ CD8+ cytotoxic T cells vs vehicle", "setting": "B16 tumors [2]; 100 mg/kg BID, study day 9, flow cytometry", "result": "increase"}, {"measurement": "Efficacy after depletion of either CD8+ cells or NK cells", "setting": "B16 tumors [2]; 100 mg/kg twice daily, depleting antibodies", "result": "blocked the efficacy"}, {"measurement": "Inhibition of neuronal NOS", "setting": "[3]", "result": "No inhibition"}, {"measurement": "Tumor growth, combination with T cells specific for the PMEL tumor antigen", "setting": "B16 tumors [4]", "result": "significantly reduced tumor growth"}, {"measurement": "IC50", "setting": "[5]", "result": 32, "unit": "µM"}, {"measurement": "Growth inhibition of CT26 cell line", "setting": "CT26 cell line", "result": "No growth inhibition"}]}
